Assay results as given in US8268999B2, “Tri-cyclic pyrazolopyridine kinase inhibitors” (Vertex Pharmaceuticals Incorporated, priority 2009, dated 2012).
Several values for one entry are separate records, joined by “and”; a condition that tells them apart may be missing. Equal entries are not always repeated.

How the values were obtained:
PI3Kγ = PI3Kγ (Homo sapiens, UniProt P48736); assay: PI3K Inhibition Assay (33P-ATP, PI(4,5)P2 substrate), PI3Kγ; type: biochemical; settings: 2 nM final enzyme, 3 μM ATP, 30 μM PI(4,5)P2, 30 min at 25° C.; competitive tight binding Ki fit
Method: (§1) Using a Biomek FX from Beckman Coulter, 1.5 μL of each of ten 2.5-fold serial dilutions of a compound of the invention in 100% DMSO was added to an individual well (hereafter, “test well”) in a 96 well polystyrene plate [Corning, Costar Item No. 3697]. One test well also contained 1.5 μL of DMSO with no compound. […] Using a Titertek Multidrop, 50 μL of Reaction Mix [100 mM HEPES pH 7.5, 50 mM NaCl, 10 mM DTT, 0.2 mg/mL BSA, 60 μM phosphatidylinositol(4,5)-bisphosphate diC16 (PI(4,5)P2; Avanti Polar Lipids, Cat. No. 840046P) and PI3K isoform of interest (see Table 3 for isoform concentrations)] was added to each well. To initiate the reaction, 50 μL of ATP Mix [20 mM MgCl2, 6 μM ATP (100 μCi/μmole ^33P-ATP)] was added each well, followed by incubating the wells for 30 min. at 25° C. Final concentrations in each well were 50 mM HEPES 7.5, 10 mM MgCl2, 25 mM NaCl, 5 mM DTT, 0.1 mg/mL BSA, 30 μM PI(4,5)P2, 3 μM ATP, and the PI3K isoform of interest (see Table 3). Final compound concentrations in each well ranged from 10 μM to 1 nM.
(§2) After incubation, the reactions in each well were quenched by addition of 50 μL of stop solution [30% TCA/Water, 10 mM ATP]. […] 50 μL of scintillation fluid was added to each well and the plate read on a Perkin-Elmer TopCount™ NXT liquid scintillation counter to obtain ^33P-counts representing inhibition values. […]

PI3Kα = PI3Kα (Homo sapiens, UniProt P42336); assay: PI3K Inhibition Assay (33P-ATP, PI(4,5)P2 substrate), PI3Kα; type: biochemical; settings: 2 nM final enzyme, 3 μM ATP, 30 μM PI(4,5)P2, 30 min at 25° C.; competitive tight binding Ki fit
Method: as §1, §2

Chain of PI3Kγ (P48736 whole entry, species assumed, canonical isoform): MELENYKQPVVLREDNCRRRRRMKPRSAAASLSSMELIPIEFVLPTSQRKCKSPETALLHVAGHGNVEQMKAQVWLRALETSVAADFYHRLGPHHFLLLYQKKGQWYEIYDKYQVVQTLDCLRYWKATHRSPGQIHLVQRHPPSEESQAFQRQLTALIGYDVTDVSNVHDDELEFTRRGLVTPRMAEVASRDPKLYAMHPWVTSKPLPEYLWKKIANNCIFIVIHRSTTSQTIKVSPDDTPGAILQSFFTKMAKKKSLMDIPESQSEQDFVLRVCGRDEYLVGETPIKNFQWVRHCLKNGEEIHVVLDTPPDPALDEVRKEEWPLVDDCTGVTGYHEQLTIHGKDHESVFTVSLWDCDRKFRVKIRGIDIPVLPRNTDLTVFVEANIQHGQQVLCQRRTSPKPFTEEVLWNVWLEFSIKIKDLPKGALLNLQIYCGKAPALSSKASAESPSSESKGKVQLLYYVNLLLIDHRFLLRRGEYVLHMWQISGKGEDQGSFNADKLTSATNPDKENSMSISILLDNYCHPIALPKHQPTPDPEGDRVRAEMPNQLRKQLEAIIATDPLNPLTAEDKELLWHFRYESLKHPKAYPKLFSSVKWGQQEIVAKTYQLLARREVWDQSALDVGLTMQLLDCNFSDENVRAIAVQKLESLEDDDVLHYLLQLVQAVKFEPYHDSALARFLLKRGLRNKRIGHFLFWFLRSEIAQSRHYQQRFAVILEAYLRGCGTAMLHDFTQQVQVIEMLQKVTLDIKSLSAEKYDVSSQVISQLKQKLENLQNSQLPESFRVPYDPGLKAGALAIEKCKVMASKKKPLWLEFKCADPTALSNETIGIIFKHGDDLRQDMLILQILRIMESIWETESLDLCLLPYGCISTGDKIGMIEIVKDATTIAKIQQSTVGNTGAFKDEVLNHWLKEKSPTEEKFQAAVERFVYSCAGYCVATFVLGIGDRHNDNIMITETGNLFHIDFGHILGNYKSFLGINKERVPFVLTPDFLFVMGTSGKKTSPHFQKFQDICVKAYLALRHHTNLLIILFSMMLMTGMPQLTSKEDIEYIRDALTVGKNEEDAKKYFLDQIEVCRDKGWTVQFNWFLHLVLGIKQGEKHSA
Chain of PI3Kα (P42336 whole entry, species assumed): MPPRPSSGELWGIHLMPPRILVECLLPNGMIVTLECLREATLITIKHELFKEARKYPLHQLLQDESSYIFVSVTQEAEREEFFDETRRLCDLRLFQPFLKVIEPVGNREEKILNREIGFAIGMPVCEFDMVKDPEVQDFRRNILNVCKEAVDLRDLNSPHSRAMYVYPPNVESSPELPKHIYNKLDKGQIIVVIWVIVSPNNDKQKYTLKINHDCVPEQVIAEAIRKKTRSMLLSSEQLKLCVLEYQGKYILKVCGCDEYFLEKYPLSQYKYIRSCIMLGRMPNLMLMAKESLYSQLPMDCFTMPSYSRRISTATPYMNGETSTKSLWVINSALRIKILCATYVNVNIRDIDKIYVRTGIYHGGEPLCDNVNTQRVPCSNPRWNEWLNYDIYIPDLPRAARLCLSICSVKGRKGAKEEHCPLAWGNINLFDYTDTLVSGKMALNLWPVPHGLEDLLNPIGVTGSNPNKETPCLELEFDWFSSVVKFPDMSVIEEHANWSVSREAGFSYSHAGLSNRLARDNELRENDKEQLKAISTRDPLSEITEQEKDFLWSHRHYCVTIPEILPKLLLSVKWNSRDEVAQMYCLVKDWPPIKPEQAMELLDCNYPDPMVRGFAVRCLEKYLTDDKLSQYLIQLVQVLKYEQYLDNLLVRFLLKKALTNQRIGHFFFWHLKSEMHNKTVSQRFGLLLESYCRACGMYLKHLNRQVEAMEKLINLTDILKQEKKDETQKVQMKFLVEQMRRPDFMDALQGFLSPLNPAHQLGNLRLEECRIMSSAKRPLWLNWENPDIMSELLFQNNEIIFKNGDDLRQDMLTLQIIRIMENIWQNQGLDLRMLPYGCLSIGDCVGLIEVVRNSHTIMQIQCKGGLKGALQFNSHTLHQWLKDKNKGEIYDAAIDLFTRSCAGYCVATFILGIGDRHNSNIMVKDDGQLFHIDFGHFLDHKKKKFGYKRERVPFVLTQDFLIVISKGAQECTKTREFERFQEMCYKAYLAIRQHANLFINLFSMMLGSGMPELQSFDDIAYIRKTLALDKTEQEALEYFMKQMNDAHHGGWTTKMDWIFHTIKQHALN
Chain of PI3Kα (P27986 whole entry partner, species assumed): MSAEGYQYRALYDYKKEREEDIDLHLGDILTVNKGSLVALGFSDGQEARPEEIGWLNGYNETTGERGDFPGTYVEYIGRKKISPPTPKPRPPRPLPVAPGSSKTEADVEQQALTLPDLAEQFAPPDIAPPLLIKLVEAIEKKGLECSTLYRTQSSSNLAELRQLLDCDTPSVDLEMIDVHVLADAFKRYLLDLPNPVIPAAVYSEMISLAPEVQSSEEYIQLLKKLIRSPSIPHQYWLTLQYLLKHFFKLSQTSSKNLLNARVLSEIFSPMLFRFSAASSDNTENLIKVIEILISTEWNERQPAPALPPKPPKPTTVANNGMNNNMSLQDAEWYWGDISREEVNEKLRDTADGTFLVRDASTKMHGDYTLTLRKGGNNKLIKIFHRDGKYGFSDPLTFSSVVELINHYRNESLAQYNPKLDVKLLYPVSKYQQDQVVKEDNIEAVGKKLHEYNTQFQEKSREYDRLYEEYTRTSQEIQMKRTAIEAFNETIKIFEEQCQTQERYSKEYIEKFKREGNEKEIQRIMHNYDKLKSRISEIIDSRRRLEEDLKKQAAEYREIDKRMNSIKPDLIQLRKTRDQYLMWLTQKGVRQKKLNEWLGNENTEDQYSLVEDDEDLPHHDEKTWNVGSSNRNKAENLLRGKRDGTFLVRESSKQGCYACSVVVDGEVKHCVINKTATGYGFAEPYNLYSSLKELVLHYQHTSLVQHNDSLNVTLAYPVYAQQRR

Ki (PI3Kγ)	Ki (PI3Kα)	SMILES
3 nM and < 100 nM		CCN(CC)C(=O)c1cccc(Nc2nc3ccc(-c4cncc(OC)c4)cc3s2)n1 [Compound 110]
	2 nM and < 100 nM	COc1cc(-c2ccc3nc(Nc4cnccn4)sc3n2)cnc1OC [Compound 37]
